From ChEMBL document CHEMBL1135000, “Stereoselective and improved syntheses and anticancer testing of 3'-O-silatranylthymidines” (Bioorg Med Chem Lett, 2002)

What was measured:
[1] = tested on: Human alphaherpesvirus 1; assay: Inhibition against herpes simplex virus type 1, measured by a cytopathic effect inhibition assay with human foreskin fibroblast (HFF)cells infected with HSV; Inactive; assay type: functional, organism-based; conditions: Human alphaherpesvirus 1, HFF
[2] = tested on: Human alphaherpesvirus 2; assay: Inhibition against herpes simplex virus type 2, measured by a cytopathic effect inhibition assay with human foreskin fibroblast (HFF) cells infected with HSV; Inactive; assay type: functional, organism-based; conditions: Human alphaherpesvirus 2, HFF
[3] = tested on: Hepatitis B virus; assay: Effective concentration required for inhibition against hepatitis B virus in HBV-producing human liver cell line 2.2.15; assay type: functional, organism-based; conditions: HepG2 2.2.15
[4] = tested on: Hepatitis B virus; assay: Cytotoxicity when tested for inhibition against hepatitis B virus in HBV-producing human liver cell line 2.2.15; assay type: functional; conditions: HepG2 2.2.15

| Structure (SMILES) | EC50 [1] [µg/mL] | EC50 [2] [µg/mL] | EC50 [3] [µM] | CC50 [4] [µM] |
| --- | --- | --- | --- | --- |
| Cc1cn([C@H]2C[C@H](O[Si]34OC(C)CN(CC(C)O3)CC(C)O4)[C@@H](CO)O2)c(=O)[nH]c1=O (some centres undefined) | > 100 | > 100 | – | – |
| Cc1cn([C@H]2C[C@H](O[Si]34OCCN(CCO3)CCO4)[C@@H](CO)O2)c(=O)[nH]c1=O | – | – | > 10 | 1290 |
